Source: US20240016942A1, “STAT DEGRADERS AND USES THEREOF” (Kymera Therapeutics, Inc., priority 2020, published 2024)

What follows are compounds tested against T1, STAT3 (Homo sapiens, UniProt P40763) (assay: STAT3 HiBiT degradation assay (Nano-Glo HiBiT lytic detection) in transfected A549 cells). Conditions: 24 h compound incubation, read-out: STAT3 HiBIT A549 degradation 24 h: Average external-Abs DC50.
T1 construct: expressed in transfected cells; host or cells: A549
T1 sequence (P40763 whole entry): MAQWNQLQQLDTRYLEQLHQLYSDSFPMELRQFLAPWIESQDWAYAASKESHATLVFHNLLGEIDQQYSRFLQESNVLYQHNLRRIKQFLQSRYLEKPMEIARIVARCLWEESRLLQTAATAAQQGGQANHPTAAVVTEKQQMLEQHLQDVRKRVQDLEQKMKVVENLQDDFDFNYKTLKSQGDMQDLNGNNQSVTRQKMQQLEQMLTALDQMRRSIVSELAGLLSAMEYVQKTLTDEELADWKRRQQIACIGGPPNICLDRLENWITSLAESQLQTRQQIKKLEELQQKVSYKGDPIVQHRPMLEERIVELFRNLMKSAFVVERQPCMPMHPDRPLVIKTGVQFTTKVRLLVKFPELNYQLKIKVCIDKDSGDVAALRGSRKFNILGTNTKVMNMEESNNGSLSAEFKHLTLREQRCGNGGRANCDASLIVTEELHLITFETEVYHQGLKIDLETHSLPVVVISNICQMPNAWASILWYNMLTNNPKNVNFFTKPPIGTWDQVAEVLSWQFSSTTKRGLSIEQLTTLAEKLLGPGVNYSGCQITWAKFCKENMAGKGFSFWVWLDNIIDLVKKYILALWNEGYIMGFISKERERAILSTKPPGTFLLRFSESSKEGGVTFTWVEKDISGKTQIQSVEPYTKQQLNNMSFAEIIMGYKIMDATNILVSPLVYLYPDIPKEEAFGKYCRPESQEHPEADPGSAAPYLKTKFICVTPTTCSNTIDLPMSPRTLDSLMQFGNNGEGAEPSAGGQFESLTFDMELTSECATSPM
Assay type: cell-based
Protocol: Example 1. HiBiT Assay Protocol
Compound preparation and Cell seeding: The transfected A549 cells were harvested from dish into cell culture medium and cell numbers counted. Cells were diluted with culture medium to the desired density and 30 μL of cell suspension (about 2000 cells/well) were added into each well of a 384-well cell culture plate as designated and transferred into 37° C. 5% CO2 incubator for 24 h. Compounds were dissolved to 10 mM stock solution and 12 μL of the stock solution was transferred to a 384 LDV-plate. 3 fold, 10-point dilution was performed by transferring 4 μL compound into 8 μL DMSO using a TECAN (EVO200) liquid handler. 30 μl of diluted compound from compound source plate was transferred into the cell plate as designated by using Echo550 and transferred into 37° C. 5% CO2 incubator for 24 h.
Detection: Plates were removed from incubators and equilibrated at room temperature for 15 minutes. Nano-Glo Hibit Lytic Detection reagent (Promega Cat #N3040) was thawed and equilibrated to room temperature before the experiment. 30 μL of Nano-Glo Hibit Lytic Detection reagent was added into each well to be detected. The plates were held at room temperature for 10 min followed by reading on EnSpire.
Data analysis: The remaining activity was calculated following the formula: Remaining Activity (%)=100%×(Lumsample−LumNC)/(LumPC−LumNC). Calculate the IC50 by fitting the curve using Xlfit (v5.3.1.3), equation 201: fit=(A+((B−A)/(1+((x/C)^D)))); A: Botton; B: Top; C: IC50; and D: Slope.
The letter codes for STAT3 DC50 include: A (<0.01 μM), B (0.01-0.1 μM), C (0.1-1.0 μM), and D (>1.0 μM).
`COC(=O)N1CC[C@H]2CC[C@@H](C(=O)N[C@@H](CCC(N)=O)COc3cccc(CCCC(=O)N[C@H](C(=O)N4C[C@H](O)C[C@H]4C(=O)N[C@@H](C)c4ccc(-c5scnc5C)cc4)C(C)(C)C)c3Cl)N2C(=O)[C@@H](NC(=O)c2cc3cc(C(=O)P(=O)(O)O)ccc3[nH]2)C1` [I-87] showed a DC50 of over 1000 nM. Compound `Cc1ncsc1-c1ccc([C@H](C)NC(=O)[C@@H]2C[C@@H](O)CN2C(=O)[C@@H](NC(=O)CCCc2cccc(OC[C@H](CCC(N)=O)NC(=O)[C@@H]3CCCN3C(=O)[C@@H](NC(=O)c3cc4cc(C(=O)P(=O)(O)O)ccc4[nH]3)C(C)C)c2Cl)C(C)(C)C)cc1` [I-15, 2-[[(2S)-1-[(2S)-2-[[(2S)-4-carbamoyl-1-[2-chloro-3-(3-[[(2S)-1-[(2S,4R)-4-hydroxy-2-[[(1S)-1-[4-(4-methyl-1,3-thiazol-5-yl)phenyl]ethyl]carbamoyl]pyrrolidin-1-yl]-3,3-dimethyl-1-oxobutan-2-yl]carbamoyl]propyl)phenoxy]butan-2-yl]carbamoyl]pyrrolidin-1-yl]-3-methyl-1-oxobutan-2-yl]carbamoyl]-1H-indole-5-carbonylphosphonic acid] has a DC50 of 10 to 100 nM. `Cn1c(=O)n(C2CCC(=O)NC2=O)c2ccc(CCCCc3cccc(OC[C@H](CCC(N)=O)NC(=O)[C@@H]4CC[C@@H]5CCCC[C@H](NC(=O)c6cc7cc(C(=O)P(=O)(O)O)ccc7[nH]6)C(=O)N54)c3Cl)cc21` (stereo partly shown) [I-32] was tested, and the DC50 was over 1000 nM. For `C[C@H](NC(=O)[C@@H]1Cc2cc(CCCCCCc3ccc4c(c3)n(C)c(=O)n4C3CCC(=O)NC3=O)cc3c2N1C(=O)[C@@H](NC(=O)c1cc2cc(C(=O)P(=O)(O)O)ccc2[nH]1)CC3)C(=O)NCc1ccc(S(C)(=O)=O)cc1` (stereo partly drawn) [I-65, 2-[[(2S,11S)-6-[6-[1-(2,6-dioxopiperidin-3-yl)-3-methyl-2-oxo-1,3-benzodiazol-5-yl]hexyl]-2-[[(1S)-1-[[(4-methanesulfonylphenyl)methyl]carbamoyl]ethyl]carbamoyl]-12-oxo-1-azatricyclo[6.4.1.0^[4,13]]trideca-4(13),5,7-trien-11-yl]carbamoyl]-1H-indole-5-carbonylphosphonic acid], the DC50 was over 1000 nM. With `Cc1ncsc1-c1ccc([C@H](C)NC(=O)[C@@H]2C[C@@H](O)CN2C(=O)[C@@H](NC(=O)CCCc2cccc(OC[C@H](CCC(N)=O)NC(=O)[C@@H]3CCCN3C(=O)[C@H](C)NC(=O)c3cc4cc(C(=O)P(=O)(O)O)ccc4[nH]3)c2Cl)C(C)(C)C)cc1` [I-58] the DC50 was 10 to 100 nM. In the case of `Cc1cc(CCCC(=O)N[C@H](C(=O)N2C[C@H](O)C[C@H]2C(=O)N[C@@H](C)c2ccc(-c3scnc3C)cc2)C(C)(C)C)c(F)c(OC[C@H](CCC(N)=O)NC(=O)[C@@H]2CC[C@@H]3CCCC[C@H](NC(=O)c4cc5cc(C(=O)P(=O)(O)O)ccc5[nH]4)C(=O)N32)c1` [I-7], the DC50 is reported as under 10 nM. `Cc1cc(CCCCCC(=O)N[C@H](C(=O)N2C[C@H](O)C[C@H]2C(=O)N[C@@H](C)c2ccc(-c3scnc3C)cc2)C(C)(C)C)c(F)c(OC[C@H](CCC(N)=O)NC(=O)[C@@H]2CC[C@@H]3CCCC[C@H](NC(=O)c4cc5cc(C(=O)P(=O)(O)O)ccc5[nH]4)C(=O)N32)c1` [I-4] showed a DC50 of under 10 nM. With `Cc1ncsc1-c1ccc([C@H](C)NC(=O)[C@@H]2C[C@@H](O)CN2C(=O)[C@@H](NC(=O)CCCc2cccc(OC[C@H](CCC(N)=O)NC(=O)[C@@H]3CCCN3C(=O)[C@@H](NC(=O)c3cc4cc(C(=O)P(=O)(O)O)ccc4[nH]3)C(C)(C)C)c2Cl)C(C)(C)C)cc1` [I-14] the DC50 was 100 to 1000 nM. In the case of `CC(C)c1ccc(CNC(=O)[C@H](CCC(N)=O)NC(=O)[C@@H]2CC[C@@H]3CCN(C(=O)[C@H]4CC[C@@H](CCc5ccc6c(c5)n(C)c(=O)n6C5CCC(=O)NC5=O)CC4)C[C@H](NC(=O)c4cc5cc(C(=O)P(=O)(O)O)ccc5[nH]4)C(=O)N32)cc1F` (stereo partly shown) [I-30], the DC50 is reported as 10 to 100 nM. In the case of `Cn1c(=O)n(C2CCC(=O)NC2=O)c2ccc(C[C@H]3CC[C@@H](CC(=O)N4CC[C@H]5CC[C@@H](C(=O)N[C@@H](CCC(N)=O)C(=O)NCc6ccc(S(C)(=O)=O)cc6Cl)N5C(=O)[C@@H](NC(=O)c5cc6cc(C(=O)P(=O)(O)O)ccc6[nH]5)C4)CC3)cc21` (stereo partly shown) [I-45], the DC50 is reported as 10 to 100 nM. Compound `Cn1c(=O)n(C2CCC(=O)NC2=O)c2ccc(CCCCCc3cccc(OC[C@H](CCC(N)=O)NC(=O)[C@@H]4CC[C@@H]5CCCC[C@H](NC(=O)c6cc7cc(C(=O)P(=O)(O)O)ccc7[nH]6)C(=O)N54)c3Cl)cc21` (stereo partly shown) [I-28] has a DC50 of 100 to 1000 nM. Work on `C[C@@H](NC(=O)[C@H](CCC(N)=O)NC(=O)[C@@H]1CC[C@@H]2CCN(C(=O)C[C@H]3CC[C@@H](Cc4ccc5c(c4)n(C)c(=O)n5C4CCC(=O)NC4=O)CC3)C[C@H](NC(=O)c3cc4cc(C(=O)P(=O)(O)O)ccc4[nH]3)C(=O)N21)c1ccc(S(C)(=O)=O)cc1` (stereo partly shown) [I-40] yielded a DC50 of 100 to 1000 nM. With `CC(=O)N1CC[C@H]2CC[C@@H](C(=O)N[C@@H](CCC(N)=O)COc3cccc(CCCC(=O)N[C@H](C(=O)N4C[C@@H](O)C[C@H]4C(=O)N[C@@H](C)c4ccc(-c5scnc5C)cc4)C(C)(C)C)c3Cl)N2C(=O)[C@@H](NC(=O)c2cc3cc(C(=O)P(=O)(O)O)ccc3[nH]2)C1` [I-42] the DC50 was over 1000 nM. For `CN1C(=O)CCC(n2c(=O)n(C)c3cc(C[C@H]4CC[C@@H](CC(=O)N5CC[C@H]6CC[C@@H](C(=O)N[C@@H](CCC(N)=O)C(=O)NC(c7ccccc7)c7ccccc7)N6C(=O)[C@@H](NC(=O)c6cc7cc(C(=O)P(=O)(O)O)ccc7[nH]6)C5)CC4)ccc32)C1=O` (stereo partly shown) [I-64], the DC50 was over 1000 nM. `Cn1c(=O)n(C2CCC(=O)NC2=O)c2ccc(C[C@H]3CC[C@@H](CCN4CC[C@H]5CC[C@@H](C(=O)N[C@@H](CCC(N)=O)C(=O)NCc6ccc(S(C)(=O)=O)cc6)N5C(=O)[C@@H](NC(=O)c5cc6cc(C(=O)P(=O)(O)O)ccc6[nH]5)C4)CC3)cc21` (stereo partly drawn) [I-52, 2-[[(5S,8S,10aR)-8-[[(1S)-3-carbamoyl-1-[[(4-methanesulfonylphenyl)methyl]carbamoyl]propyl]carbamoyl]-6-oxo-3-[2-[(1s,4s)-4-[[1-(2,6-dioxopiperidin-3-yl)-3-methyl-2-oxo-1,3-benzodiazol-5-yl]methyl]cyclohexyl]ethyl]-octahydropyrrolo[1,2-a][1,5]diazocin-5-yl]carbamoyl]-1H-indole-5-carbonylphosphonic acid] gave a DC50 of 100 to 1000 nM. In the case of `Cn1c(=O)n(C2CCC(=O)NC2=O)c2ccc(C[C@H]3CC[C@H](CC(=O)N4CC[C@H]5CC[C@@H](C(=O)N[C@@H](CCC(N)=O)C(=O)NCc6ccc(S(C)(=O)=O)cc6)N5C(=O)[C@@H](NC(=O)c5cc6cc(C(=O)P(=O)(O)O)ccc6[nH]5)C4)CC3)cc21` (stereo partly shown) [I-74], the DC50 is reported as 10 to 100 nM.

Same assay, conditions: read-out: STAT3 HiBIT A549 degradation 24 h: Average external-Abs DC50, 24 h compound incubation
In the case of `Cc1ncsc1-c1ccc([C@H](C)NC(=O)[C@@H]2C[C@@H](O)CN2C(=O)[C@@H](NC(=O)CCCc2cccc(OC[C@H](CCC(N)=O)NC(=O)[C@@H]3CC[C@@H]4CCCC[C@H](NC(=O)c5cc6cc(C(F)(F)P(=O)(O)O)ccc6s5)C(=O)N43)c2Cl)C(C)(C)C)cc1` [I-89], the DC50 is reported as over 1000 nM. In the case of `Cn1c(=O)n(C2CCC(=O)NC2=O)c2ccc(C[C@H]3CC[C@@H](CC(=O)N4CC[C@H]5CC[C@@H](C(=O)N[C@@H](CCC(N)=O)C(=O)NCc6ccc(S(C)(=O)=O)c(F)c6)N5C(=O)[C@@H](NC(=O)c5cc6cc(C(=O)P(=O)(O)O)ccc6[nH]5)C4)CC3)cc21` (stereo partly shown) [I-46], the DC50 is reported as 10 to 100 nM. In the case of `CC(=O)N1CC[C@H]2CC[C@@H](C(=O)N[C@@H](CCC(N)=O)COc3cccc(CCCC(=O)N[C@H](C(=O)N4C[C@H](O)C[C@H]4C(=O)N[C@@H](C)c4ccc(-c5scnc5C)cc4)C(C)(C)C)c3Cl)N2C(=O)[C@@H](NC(=O)c2cc3cc(C(F)(F)P(=O)(O)O)ccc3s2)C1` [I-83], the DC50 is reported as over 1000 nM.
